Measurements published in patent US11130741B2 (Bioimics AB, priority 2016, dated 2021).
Converted amounts (≈) assume the structure as drawn. Like-named read-outs stand apart in the source and are kept apart here.

Columns and labels:
[1] = system: Staphylococcus aureus (ATCC25923); test: MIC, broth microdilution (CLSI), Staphylococcus aureus ATCC25923; details: ATCC25923, read-out: S. aureus ("Clinical") MIC
[2] = system: S. aureus MRSA ATCC 33591; test: MIC, S. aureus MRSA ATCC 33591; format: cell-based; details: Staphylococcus aureus; read-out: MIC S. aureus MRSA ATCC 33591
H. influenzae ATCC 49247 = test: MIC, H. influenzae ATCC 49247; format: cell-based; details: Haemophilus influenzae, ATCC49247
A. baumannii ATCC 17978 = test: MIC, A. baumannii ATCC 17978; format: cell-based; details: Acinetobacter baumannii, ATCC17978
[3] = system: E. coli RNase P RNA, M1 RNA; test: Initial inhibition of RNase P activity (normalised cleavage of pATSerUG at maximum compound concentration); format: biochemical; details: at 8 μM; normalised cleavage (cleavage with compound / without compound)
[4] = system: Staphylococcus aureus subsp. aureus (ATCC29213); test: MIC, broth microdilution (CLSI), Staphylococcus aureus subsp. aureus ATCC29213; format: cell-based; details: ATCC29213, Table 16, read-out: MIC S. aureus ATCC 29213
[5] = system: P. aeruginosa NTUH-974 (MDR); test: MIC, P. aeruginosa NTUH-974 (MDR); format: cell-based; details: Pseudomonas aeruginosa, read-out: MIC P. aeruginosa NTUH-974 (MDR)
[6] = system: Enterococcus faecalis (ATCC29212); test: MIC, broth microdilution (CLSI), Enterococcus faecalis ATCC29212; format: cell-based; details: read-out: MIC E. faecalis ATCC 29212
S. pneumoniae ATCC 49619 = test: MIC, S. pneumoniae ATCC 49619; format: cell-based; details: Streptococcus pneumoniae, ATCC49619
[7] = system: Pseudomonas aeruginosa (ATCC27853); test: microbe, parasite or virus in culture; format: cell-based; details: read-out: MIC P. aeruginosa ATCC 27853
E. coli JW5503 = test: MIC, E. coli JW5503; format: cell-based; details: Escherichia coli, JW5503, read-out: MIC E. coli JW5503
K. pneumoniae ATCC 43816 = test: MIC, K. pneumoniae ATCC 43816; format: cell-based; details: Klebsiella pneumoniae, ATCC43816
S. aureus ATCC 29213 = test: MIC, S. aureus ATCC 29213 + 50% HS; format: cell-based; details: Staphylococcus aureus, ATCC29213
N. gonorrhoeae 612501 = test: MIC, N. gonorrhoeae 612501; format: cell-based; details: Neisseria gonorrhoeae
[8] = system: Escherichia coli (ATCC25922); test: MIC, broth microdilution (CLSI), Escherichia coli ATCC25922
E. faecium ATCC 700221 = test: MIC, E. faecium ATCC 700221; format: cell-based; details: Enterococcus faecium, ATCC700221; read-out: MIC E. faecium ATCC 700221
[9] = system: E. coli RNase P RNA, M1 RNA; test: Inhibition of bacterial RNase P activity, IC50 determination (cleavage of pATSerUG by M1 RNA); format: biochemical; details: NI = No inhibition
[10] = ATCC25922, read-out: E. coli MIC, Table 15, NI = No inhibition

| IC50 [9] [µM] | Structure (SMILES) | MIC [1] [µg/mL] | MIC [2] [µg/mL] | MIC (H. influenzae ATCC 49247) [µg/mL] | MIC (A. baumannii ATCC 17978) [µg/mL] | Normalised RNase P cleavage (fraction of control) [3] | MIC [4] [µg/mL] | MIC [5] [µg/mL] | MIC [6] [µg/mL] | MIC (S. pneumoniae ATCC 49619) [µg/mL] | MIC [7] [µg/mL] | MIC (E. coli JW5503) [µg/mL] | MIC (K. pneumoniae ATCC 43816) [µg/mL] | MIC (S. aureus ATCC 29213) [µg/mL] | MIC (N. gonorrhoeae 612501) [µg/mL] | MIC [8, 10] [µg/mL] | MIC ([8]; ATCC25922, read-out: MIC E. coli ATCC 25922) [µg/mL] | MIC (E. faecium ATCC 700221) [µg/mL] |
| --- | --- | --- | --- | --- | --- | --- | --- | --- | --- | --- | --- | --- | --- | --- | --- | --- | --- | --- |
|  | Nc1cc(C(F)(F)F)cc2c1N(CCCn1ccnc1)c1ccccc1S2 [compound 44, 10-(3-(1H-imidazol-1-yl)propyl)-3-(trifluoromethyl)-10H-phenothiazin-1-amine] | 2 (≈ 5.12 µM) | 64 (≈ 164 µM) | 16 (≈ 41 µM) | > 128 | 1.06 | 4 (≈ 10.2 µM) | > 128 | 16 (≈ 41 µM) | 16 (≈ 41 µM) | > 128 | 8 (≈ 20.5 µM) | > 128 | > 128 | 2 (≈ 5.12 µM) | > 100 | > 128 | 8 (≈ 20.5 µM) |
| > 100 | C[C@@H](N)CC(=O)Nc1cc(C(F)(F)F)cc2c1Nc1ccccc1S2 [compound 67, (R)-3-amino-N-(3-(trifluoromethyl)-10H-phenothiazin-1-yl)butanamide] | 13 (≈ 35.4 µM) |  |  |  | 0.19 |  |  |  |  |  |  |  |  |  | 13 (≈ 35.4 µM) |  |  |
